Reference: patent publication US6407083B1, “Uses of novel organoselenium compounds with pro-oxidant activity” (Oxis International, Inc., priority 1996, dated 2002)

Experiments:
[1] = test system: NADPH in the presence of glutathione (GSH) and glutathione disulfide reductase; experiment: Glutathione oxidase activity (consumption of NADPH in the presence of GSH and glutathione disulfide reductase); type: biochemical; settings: pH 7.3, 37° C.
Method: To 1.5 ml of 50 mM HEPES buffer, pH 7.3, containing 2.47 mM of reduced glutathione (GSH), 0.32 mM of nicotinamide adenine dinucleotide phosphate (NADPH), and 1.23 units/ml of glutathione disulfide reductase (GR), at 37° C., are added, in the following order:
320 μl of 50 mM HEPES buffer, pH 7.3, containing 0.1 mM of DTPA, pre-equilibrated at 37° C.
30 μl of a 5 mM ethanolic mother-solution of the compound under test or 30 μl of absolute ethanol (blank). Each compound is tested at a final concentration of 81 μM.
The final reaction volume is 1850 μl.
The glutathione oxidase activity is assayed at 37° C. by measuring the reduction in absorbance at 340 nm over 5 minutes. The said initial enzymatic rate or activity is proportional to the slope of the plot of absorbance against time.
The catalytic activity for oxygen reduction in the compounds under test corresponds to the rate of consumption of NADPH.
Furthermore, the effects of superoxide dismutase (SOD), catalase, iodoacetamide (IAA) and Se-GPx on the glutathione oxidase activity of the tested compounds have been studied.
the necessary and sufficient quantity, variable according to the case, of 50 mM HEPES, pH 7.3, containing 0.1 mM of DTPA, pre-equilibrated at 37° C.; the final reaction volume being 1850 μl.
either 100 μl of a solution of 1850 units/ml of SOD in water of ultrapure quality,
or 100 μl of a solution of 1850 units/ml of catalase in water of ultrapure quality and 100 μl of a solution of 1850 units/ml of SOD in water of ultrapure quality,
or 150 μl of a 6.2 mM solution of iodoacetamide in 50 mM HEPES buffer, pH 7.3, containing 0.1 mM DTPA,
or 100 μl of a solution of 10 units/ml of glutathione peroxidase Se-GPx in 50 mM HEPES buffer, pH 7.3, containing 0.1 mM of DTPA,
or 100 μl of a solution of 1850 units/ml of SOD in water of ultrapure quality, and 100 μl of a solution of 10 units/ml of glutathione peroxidase Se-GPx in 50 mM HEPES buffer, pH 7.3, containing 0.1 mM of DTPA.
30 μl of a 5 mM ethanolic mother-solution of the compound under test.
The glutathione oxidase activity is assayed at 37° C. by monitoring the decrease in the absorbance at 340 nm over 15 minutes. The said initial enzymatic rate or activity is proportional to the slope of the plot of absorbance against time.
The consumption of NADPH has been calculated from the slopes of the curves obtained (OD/minute): [formula]
Vt=total volume of the reaction =1850 μl
ε=molar extinction coefficient of NADPH=[…]. M^−1. cm^−1
They are expressed in nmoles of NADPH oxidized per minute.

[2] = test system: MCF-7 cells from a breast cancer of human origin; experiment: Cytotoxicity on MCF-7 cells (MTT viability test); type: cell-based; settings: for mortality at 0.195 µM: MCF7, 0.195 μM; for mortality at 0.391 µM: MCF7, 0.391 μM; for mortality at 0.781 µM: MCF7, 0.781 μM; for mortality at 1.562 µM: MCF7, 1.562 μM; for mortality at 3.125 µM: MCF7, 3.125 μM; for mortality at 6.25 µM: MCF7, 6.25 μM; for mortality at 12.5 µM: MCF7, 12.5 μM; for mortality at 25 µM: MCF7, 25 μM; for mortality at 50 µM: MCF7, 50 μM
Method: The MCF-7 cells from a breast cancer of human origin are cultivated, in an atmosphere of a gaseous mixture of 95% air and 5% CO2, saturated with water, two days before the test, in order to be in a growth phase during the toxicity test. The cells are trypsinized and are collected in a RPMI 1640 medium containing 10% FCS, 10 mM HEPES, 1 mM pyruvate, 4 mM L-glutamine, 100 U/ml penicillin, 100 μg/ml streptomycin, in order to be centrifuged at 1,500 rpm for 10 minutes. The cell pellet is resuspended in the same medium in order to obtain a cell density of 30,000 cells/cm^2.
The compounds of general structure IA described in the present invention are solubilised at 10 mM in absolute ethanol and diluted in RPMI-10% FCS culture medium, the final volume of ethanol in the reaction medium is 0.5% (v/v). The molecules are studied at the following concentrations: 50; 25; 12.5; 6.25; 3.125; 1.562; 0.781; 0.391 and 0.195 μM. Two controls are carried out, in the presence and in the absence of ethanol respectively, using 100 μl of cell suspension of 30,000 cells/cm^2 incubated with 100 μl of RPMI-10% FCS medium and ±0.5% of ethanol (v/v).
Before starting the study, the cells are rinsed with PBS buffer which contains neither calcium nor magnesium. The cells are then incubated with 200 μl of compound under test, or with the medium containing or not 0.5% of ethanol (controls) for either 24 or 48 hours under an atmosphere of a gaseous mixture of 95% air and 5% CO2, saturated with water, at 37° C., then submitted to the viability test with MTT according to the following protocol.
To 200 μl of culture medium are added 50 μl of MTT at 5 mg/ml in PBS buffer. After 4 hours of incubation at 37° C., the plate is centrifuged for 10 minutes at 3,000 rpm. The supernatant is removed and the cell pellet is resuspended in 100 μl of DMSO. This is left to incubate for 10 minutes with stirring at 37° C. The coloration developed is measured at 550 nm against DMSO. The optical density OD=f(living cells) can then be plotted as a function of time.

melting point	SMILES	mortality at 0.195 µM ([2]; 24 h)	mortality at 0.195 µM ([2]; 48 h)	mortality at 0.391 µM ([2]; 24 h)	mortality at 0.391 µM ([2]; 48 h)	mortality at 0.781 µM ([2]; 24 h)	mortality at 0.781 µM ([2]; 48 h)	mortality at 1.562 µM ([2]; 24 h)	mortality at 1.562 µM ([2]; 48 h)	mortality at 3.125 µM ([2]; 24 h)	mortality at 3.125 µM ([2]; 48 h)	mortality at 6.25 µM ([2]; 24 h)	mortality at 6.25 µM ([2]; 48 h)	mortality at 12.5 µM ([2]; 24 h)	mortality at 12.5 µM ([2]; 48 h)	mortality at 25 µM ([2]; 24 h)	mortality at 25 µM ([2]; 48 h)	mortality at 50 µM ([2]; 24 h)	mortality at 50 µM ([2]; 48 h)	also measured
108 °C	CC1(C)CN[Se]c2c([N+](=O)[O-])cccc21																			
95 °C	CC12CCC3c4ccc(O)cc4CC(CCCCCCCCN4[Se]c5c([N+](=O)[O-])cccc5C4(C)C)C3C1CCC2O (stereo not shown)																			
128 °C	CC12CCC3c4ccc(O)cc4CC(CCCCCCCC(=O)N4[Se]c5c([N+](=O)[O-])cccc5C4(C)C)C3C1CCC2O (stereo not shown)																			

Continued, molecule first:

SMILES	melting point	mortality at 0.195 µM ([2]; 24 h)	mortality at 0.195 µM ([2]; 48 h)	mortality at 0.391 µM ([2]; 24 h)	mortality at 0.391 µM ([2]; 48 h)	mortality at 0.781 µM ([2]; 24 h)	mortality at 0.781 µM ([2]; 48 h)	mortality at 1.562 µM ([2]; 24 h)	mortality at 1.562 µM ([2]; 48 h)	mortality at 3.125 µM ([2]; 24 h)	mortality at 3.125 µM ([2]; 48 h)	mortality at 6.25 µM ([2]; 24 h)	mortality at 6.25 µM ([2]; 48 h)	mortality at 12.5 µM ([2]; 24 h)	mortality at 12.5 µM ([2]; 48 h)	mortality at 25 µM ([2]; 24 h)	mortality at 25 µM ([2]; 48 h)	mortality at 50 µM ([2]; 24 h)	mortality at 50 µM ([2]; 48 h)	also measured
CC(=O)N1CC(C)(C)c2cccc([N+](=O)[O-])c2[Se]1	127 °C																			
CC1(C)N[Se]c2c([N+](=O)[O-])cccc21 [Bxt-51062, 3,3-Dimethyl-7-nitrobenzisoselenazoline]		0%	2.22%	0%	0%	23.6%	32.5%	42.7%	58.5%	70.1%	83%	100%	100%	100%	100%	100%	100%	100%	100%	GSH oxidase activity, nmole NADPH oxidized/min ([1]; compound + GSH + GR-NADPH + SOD and CAT): 79.29 nmole NADPH oxidized/min; GSH oxidase activity, nmole NADPH oxidized/min ([1]; compound + GSH + GR-NADPH + SOD): 78.78 nmole NADPH oxidized/min; GSH oxidase activity, nmole NADPH oxidized/min ([1]; compound + GSH + GR-NADPH + Se-GPx and SOD): 78.45 nmole NADPH oxidized/min; GSH oxidase activity, nmole NADPH oxidized/min ([1]; compound + GSH + GR-NADPH + Se-GPx): 80.61 nmole NADPH oxidized/min; GSH oxidase activity, nmole NADPH oxidized/min ([1]; compound + GSH + GR-NADPH ± IAA (iodoacetamide)): 76.25 nmole NADPH oxidized/min; GSH oxidase activity, nmole NADPH oxidized/min ([1]; compound + GSH + GR-NADPH, no further effector): 77.17 nmole NADPH oxidized/min
CC1(C)c2cccc([N+](=O)[O-])c2[Se]N1CCO [Bxt-57001, N-(2-hydroxyethyl)-3,3-dimethyl-7-nitrobenzisoselenazoline]		0%	0%	0%	0%	16.9%	0%	29.4%	20%	23.9%	23.3%	55%	41.2%	75.3%	58.5%	99.1%	99.8%	99.8%	100%	
CC(=O)N1[Se]c2c([N+](=O)[O-])cccc2C1(C)C [Bxt-57004, N-acetyl-3,3-dimethyl-7-nitrobenzisoselenazoline]		0%	17.4%	3.19%	12.8%	34.9%	38.6%	59.4%	60.5%	71.2%	69.1%	73.3%	76.4%	79.8%	75.8%	92.8%	88.4%	100%	100%	
CC/C(=C(\c1ccccc1)c1ccc(OCCN2[Se]c3c([N+](=O)[O-])cccc3C2(C)C)cc1)c1ccccc1 [Bxt-57007, N-{2-[4-(1,2-diphenylbut-1-en-1-yl)phenoxy]ethyl}3,3-dimethyl-7-nitrobenzisoselenazoline]		0%	1.07%	1.02%	8.42%	8.39%	14.2%	12.9%	25.1%	13.3%	18.7%	19.4%	33.2%	28.6%	44.6%	36.6%	46.8%	40.8%	46.3%	
